Measured values from patent US20230138400A1, “METHODS AND PHARMACEUTICAL COMPOSITIONS FOR REPROGRAMING IMMUNE ENVIRONMENT IN A SUBJECT IN NEED THEREOF” (INSERM (INSTITUT NATIONAL DE LA SANTE ET DE LA RECHERCHE …, priority 2016, published 2023).

Key:
[1] = test system: naive CD4 T cells isolated from the spleen of C57BL/6 mice; test: Polarization of naive CD4 T cells (Th1, Th2, Treg, Th17 conditions) in presence of DDA, flow cytometry; type: cell-based, mouse
Experimental: FIGS. 1A-E. Sorted naive CD4 T cells were isolated from the spleen of C57BL/6 mice and activated in the indicated Th1, Th2, Treg, or Th17 polarizing conditions as described in the “Materials and methods” section”. These cells were cultured in the presence of increasing concentrations of DDA. After 96 hours, the percentage of (A) Th1: CD4+Tbet+IFNg+, (B) Th2: CD4+GATA3+[…], (C) Treg: CD4+Foxp3+IL10+ and (D) Th17: CD4+RORgt+[…], cells was measured by flow cytometry. (E) Sorted naive CD8 T cells were isolated from the spleen of the C57BL/6 mice and activated with anti-CD3, anti-CD28 and recombinant IL2. After 96 hours, the percentage of cytotoxic T CD8+GranzymB+IFNg+ cells was measured by flow cytometry.
FIGS. 2A-E. Sorted naive CD4 T cells isolated from the spleen of C57BL/6 mice were activated in Th1, Th2, Treg, or Th17 polarizing conditions as indicated in the “Materials and methods” section”. After 96 h, increasing concentrations of DDA was added on polarized CD4 T cells for 24 h. Then the percentage of (A) CD4+Tbet+IFNg+, (B) CD4+GATA3+[…], (C) CD4+Foxp3+IL10+ and (D) CD4+RORgt+[…] cells was measured by flow cytometry. (E) Sorted naïve CD8 T cells were isolated from the spleen of the C57BL/6 mice and activated with anti-CD3, anti-CD28 and recombinant IL2. After 96 h, increasing concentrations of DDA was added on activated CD8 T cells for 24 h. Then the percentage of cytotoxic T CD8+GranzymB+IFNg+ cells was measured by flow cytometry.
Cells isolation. Single-cells leukocyte suspensions were obtained from spleens of C57BL/6 mice. Naive CD4 or CD8 T cells are isolated by depletion of memory CD4 or CD8 T cells and non-CD4 or non-CD8 T cells according the manufacturer's protocol from Miltenyi kit (Miltenyi biotec). Purities of CD4+CD44l^ow CD62L^high or CD8+CD44l^ow CD62L^high T cells after isolation were >98%
Immune cell culture. Isolated CD4+ or CD8+ T cells were cultures in 96-well flat bottom plates (0.25×10^6 cells per wells) in 0.25 ml of complete RPMI 1640 media (10% FBS, 1% penicillin/Streptomycin, 1% sodium pyruvate, 1% HEPES and 50 μM b-mercaptoethanol) in the presence of 10 μg/ml plate-bound anti-mouse CD3 (2C11) and 2 μg/ml soluble α-CD28 (LEAF) in addition to 50 ng/ml of recombinant IL-2 (e-bioscience). DDA (synthesized by Affichem) diluted in the solvent vehicle was added at increasing concentration (0-1-10-100 and 1000 nM). Cells were cultured in polarizing Th1 (20 ng/ml of recombinant […] and 10 μg/ml of anti-IL4), Th2 (50 ng/ml of recombinant IL-4, 10 μg/ml of anti-IFNg), Th17 (10 ng/ml of recombinant TGF-b, 100 ng/ml of recombinant IL-6, 10 μg/ml of anti-IFN-g and 10 μg/ml of anti-IL4) or Treg (10 ng/ml of recombinant TGF-b, 10 μg/ml of anti-IFNg and 10 μg/ml of anti-IL4) conditions. All recombinant cytokines were purchased from Peprotech and antibodies were purchased from eBioscience. After 5 days of culture, cells were collected and analyzed by flow cytometry. To investigate the impact of DDA on polarization of CD4 or CD8 naive T cells, DDA or the solvent vehicle was added at the beginning of culture at Day 0 or at Day 4 and cells was analyzed at day 5 by flow cytometry.

SKMEL-28 cells = test: Composition of exosomes from SKMEL-28 cells (shCTRL or shLXRbeta) treated with DDA; type: cell-based, human
Experimental: Exosome characterization. By flow cytometry: (tetraspanin analysis), exosomes (10 μg) were bound onto 10 μl of latex beads (Interfacial Dynamics/Invitrogen) in 200 μl PBS for 1 hour at 25° C. with gentle periodical shaking. Free sites on latex beads were saturated with 100 μl vesicle-free FBS for 30 min at 25° C. Beads with bound exosomes were centrifuged for 5 min at 5000 rpm, washed in 200 μl PBS, and diluted in 100 μl FACS buffer. Specific primary antibody or control isotype (1:50) were added and incubated at room temperature for 30 min. After centrifugation and washing, secondary antibody (1:100) was added and incubated for 30 min at room temperature. Beads with bound antibody-labelled exosomes were diluted in 1 ml FACS buffer and analyzed by flow cytometry (FACScalibur, Becton-Dickinson). By western-blot analysis: 5-20 μg exosomes were directly diluted in sample buffer and denaturated by heating at 60° C. for 10 min. Equal amounts of proteins were deposited in each well and proteins were resolved in SDS-PAGE and transferred onto PVDF membranes, saturated with 5% w/v non-fat milk in TBS-Tween 0.1%. […] Revelation from immunoblotting was performed by enhanced chemiluminescence and analysed by ChemiDoc imager (BioRad) or by Pxi imager (Ozyme). By sucrose gradient: the density of exosomes was measured through a sucrose gradient. […]

## CC(C)CCCC(C)[C@H]1CCC2C3C[C@@H](NCCc4cnc[nH]4)[C@@]4(O)C[C@@H](O)CC[C@]4(C)C3CC[C@@]21C (some centres unmarked) [DDA, 5a-hydroxy-6b-[2-(1H-imidazol-4-yl)ethylamino]cholestan-3b-ol]
[1]; DDA added at day 0, Th1 polarizing conditions, 96 h, CD4+Tbet+IFNg+
  concentration from which differentiation of Th0 into Th1 is increased: ≥ 1 nM
[1]; DDA added at day 0, Th2 polarizing conditions
  Th2 differentiation: no effect
[1]; DDA added at day 0, Th17 polarizing conditions, 96 h
  concentration from which differentiation of Th0 into Th17 is increased: ≥ 100 nM
[1]; DDA added at day 0, Treg polarizing conditions
  Treg differentiation: no effect
[1]; DDA added at day 4 for 24 h
  concentration from which differentiation of Th0 into Th1 is increased: ≥ 1 nM
  differentiation into Th2: no effect
  differentiation into Th17: no effect
[1]; DDA added at day 4 for 24 h (FIG. 2)
  differentiation of Th0 into Treg: inhibits
[1]; day 4, data not shown
  activated phenotype of CD4 T cells (CD44 at their surface): upregulation of CD44
SKMEL-28 cells; exosomes from SKMEL-28-shCTRL cells
  exosome content of rab27a and b, HSP70, Melan A, tyrosinase, TRP2, calreticuline: enriched
SKMEL-28 cells; exosomes from SKMEL-28-shLXRbeta cells
  exosome content of rab27a and b, HSP70, Melan A, tyrosinase, TRP2, calreticuline: not enriched
